According to patent US20240287080A1 (IDEAYA Biosciences Inc., priority 2021, published 2024):

Biological target: T1, Pol theta (1-899) (Homo sapiens, UniProt O75417)
T1 construct: Pol theta (1-899) (5 nM) in assay buffer
Experiment: Pol theta ATPase activity, NADH oxidation-coupled enzymatic assay (ATPase NADH coupling: Standard Screening: hPolQ)
Type: biochemical
Settings: Pol theta (1-899) 5 nM
Method in brief: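 NADH-coupled ATPase readout: 5 nM Pol theta (1-899) preincubated 15 min with 10-point compound series in Tris pH 7.80, KCl, MgCl2, DTT, BSA, Tween, glycerol, then 100 μM ATP, 300 nM 50-mer poly-dT ssDNA, NADH, PEP, LDH and PK added (stock levels). A340 followed 60 min; slopes fit four-parameter for IC50.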

[1] = NADH oxidation-coupled ATPase assay, compounds of Table 3

T1 sequence (O75417 1-899): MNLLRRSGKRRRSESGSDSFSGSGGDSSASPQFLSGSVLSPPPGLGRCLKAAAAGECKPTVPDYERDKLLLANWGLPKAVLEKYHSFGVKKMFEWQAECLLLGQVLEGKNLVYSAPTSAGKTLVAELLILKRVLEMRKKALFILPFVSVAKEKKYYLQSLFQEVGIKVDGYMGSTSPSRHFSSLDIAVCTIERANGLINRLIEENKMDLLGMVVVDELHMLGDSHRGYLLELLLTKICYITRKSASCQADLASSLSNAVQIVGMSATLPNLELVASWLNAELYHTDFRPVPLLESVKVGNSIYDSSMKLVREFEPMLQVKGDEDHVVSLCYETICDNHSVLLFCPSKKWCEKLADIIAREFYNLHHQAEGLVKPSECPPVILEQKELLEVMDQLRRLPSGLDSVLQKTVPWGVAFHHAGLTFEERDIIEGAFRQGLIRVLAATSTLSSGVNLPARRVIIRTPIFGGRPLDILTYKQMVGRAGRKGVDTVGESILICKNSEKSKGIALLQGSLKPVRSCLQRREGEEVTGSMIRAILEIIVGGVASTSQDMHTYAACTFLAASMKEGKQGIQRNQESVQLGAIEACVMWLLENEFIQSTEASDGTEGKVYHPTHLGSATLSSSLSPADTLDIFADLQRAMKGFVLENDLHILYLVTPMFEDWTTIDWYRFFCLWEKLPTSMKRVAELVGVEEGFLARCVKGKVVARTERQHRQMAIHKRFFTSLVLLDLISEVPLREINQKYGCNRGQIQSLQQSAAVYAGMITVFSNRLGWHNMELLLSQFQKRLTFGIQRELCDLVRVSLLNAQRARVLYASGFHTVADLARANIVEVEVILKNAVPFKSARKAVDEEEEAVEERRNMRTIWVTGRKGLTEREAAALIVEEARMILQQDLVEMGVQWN

IC50 (Table 5, ATP, dT50 ssDNA)	IC50 [1]	SMILES	also measured
≤ 200 nM		COc1cnc(Cl)c(F)c1-c1cc(C)ncc1C(=O)Nc1nnc(O[C@H]2CCO[C@@H]2C)s1 (single isomer, unassigned) [Example 165]	
	≤ 200 nM	COc1nnc(NC(=O)c2ccc(F)cc2-c2cc(Cl)ncc2OC)s1 [Example 266, 2-(2-chloro-5-methoxypyridin-4-yl)-4-fluoro-N-(5-methoxy-1,3,4-thiadiazol-2-yl)benzamide]	
	≤ 200 nM	COc1nnc(NC(=O)c2cnc(C)cc2-c2ccc(OC(C)C)c(C#N)c2)s1 [Example 473, 4-[3-cyano-4-(propan-2-yloxy)phenyl]-N-(5-methoxy-1,3,4-thiadiazol-2-yl)-6-methylpyridine-3-carboxamide]	
	≤ 200 nM	COc1cnc(Cl)cc1-c1cc(C)ncc1C(=O)Nc1nnc(O[C@H]2CCCN([C@@H]3CCOC3)C2)s1 [Example 309, 2′-chloro-5′-methoxy-6-methyl-N-(5-(((S)-1-((R)-tetrahydrofuran-3-yl)piperidin-3-yl)oxy)-1,3,4-thiadiazol-2-yl)-[4,4′-bipyridine]-3-carboxamide]	
≤ 200 nM		COc1cnc(Cl)c(F)c1-c1cc(C)ncc1C(=O)Nc1nnc(O[C@@H]2CCO[C@@H]2C)s1 (single isomer, unassigned) [Example 166]	
	1000 to 10000 nM	COc1nnc(NC(=O)c2cc(-c3cc(Cl)ncc3OC)ncc2C)s1 [Example 285, 2′-chloro-5′-methoxy-N-(5-methoxy-1,3,4-thiadiazol-2-yl)-5-methyl-[2,4′-bipyridine]-4-carboxamide]	
≤ 200 nM		COc1cnc(Cl)c(F)c1-c1cc(C)ncc1C(=O)Nc1nnc(O[C@@H]2CCO[C@H]2C)s1 (single isomer, unassigned) [Example 167]	
		COc1nnc(NC(=O)c2cnc(C)cc2-c2cc(Cl)ccc2CO)s1 [Example 66, 4-(5-chloro-2-(hydroxymethyl)phenyl)-N-(5-methoxy-1,3,4-thiadiazol-2-yl)-6-methylnicotinamide]	IC50 (Table 4, ATP, dT50 ssDNA): 200 to 500 nM
≤ 200 nM		COc1nnc(NC(=O)c2cnc(COC3CC3)cc2-c2cc(Cl)ncc2OC)s1 [Example 215, 2′-chloro-6-(cyclopropoxymethyl)-5′-methoxy-N-(5-methoxy-1,3,4-thiadiazol-2-yl)-(4,4′-bipyridine)-3-carboxamide]	
	1000 to 10000 nM	COc1nnc(NC(=O)c2cnc(C)cc2-c2ccc(P(C)(C)=O)cc2OC)s1 [Example 303, 4-(4-(dimethylphosphoryl)-2-methoxyphenyl)-N-(5-methoxy-1,3,4-thiadiazol-2-yl)-6-methylnicotinamide]	
≤ 200 nM		COc1cnc(Cl)cc1-c1cc(C)ncc1C(=O)Nc1nnc(O[C@H]2CCC[C@@H](OC)C2)s1 (single isomer, unassigned) [Example 145]	
≤ 200 nM		COc1cnc(Cl)cc1-c1cc(C)ncc1C(=O)Nc1nnc(O[C@H]2CCO[C@@H]2C)s1 (racemic) [Example 93, rac-2′-Chloro-5′-methoxy-6-methyl-N-(5-(((2R,3S)-2-methyltetrahydrofuran-3-yl)oxy)-1,3,4-thiadiazol-2-yl)-(4,4′-bipyridine)-3-carboxamide]	
	≤ 200 nM	COc1cnc(C)c(F)c1-c1cc(C)ncc1C(=O)Nc1nnc(O[C@H]2CCC[C@H](O)C2)s1 (single isomer, unassigned) [Example 256]	
	1000 to 10000 nM	COc1nnc(NC(=O)c2cnc(C)cc2-c2cnc(C#N)cc2C)s1 [Example 413, 6-cyano-N-(5-methoxy-1,3,4-thiadiazol-2-yl)-4,6′-dimethyl-[3,4′-bipyridine]-3′-carboxamide]	
≤ 200 nM		COc1cnc(Cl)c(F)c1-c1cc(C)ncc1C(=O)Nc1nnc(O[C@@H]2CCC[C@H](O)C2)s1 (single isomer, unassigned) [Example 155]	
≤ 200 nM		COc1cnc(Cl)cc1-c1cc(C)ncc1C(=O)Nc1nnc(O[C@H]2CC[C@H](C(C)(C)O)CC2)s1 [Example 187, 2′-chloro-N-(5-(((1r,4r)-4-(2-hydroxypropan-2-yl)cyclohexyl)oxy)-1,3,4-thiadiazol-2-yl)-5′-methoxy-6-methyl-(4,4′-bipyridine)-3-carboxamide]	
≤ 200 nM		Cc1cc(-c2cc(Cl)ncc2OC(F)F)c(C(=O)Nc2nnc(O[C@H]3CCOC3)s2)cn1 [Example 83, (S)-2′-chloro-5′-(difluoromethoxy)-6-methyl-N-(5-((tetrahydrofuran-3-yl)oxy)-1,3,4-thiadiazol-2-yl)-(4,4′-bipyridine)-3-carboxamide]	
≤ 200 nM		COc1cnc(Cl)cc1-c1cc(C)ncc1C(=O)Nc1nnc(OC2CCC3(CCCO3)CC2)s1 (single isomer, unassigned) [Example 173, N-(5-(((5s,8r)-1-oxaspiro(4.5)decan-8-yl)oxy)-1,3,4-thiadiazol-2-yl)-2′-chloro-5′-methoxy-6-methyl-(4,4′-bipyridine)-3-carboxamide]	
≤ 200 nM		COc1cnc(Cl)cc1-c1cc(C)ncc1C(=O)Nc1nnc(O[C@@H]2CCC[C@H](OC)C2)s1 (single isomer, unassigned) [Example 146]	
≤ 200 nM		COc1cnc(Br)cc1-c1cc(C)ncc1C(=O)Nc1nnc(O[C@H]2COC3(CC3)C2)s1 (single isomer, unassigned) [Example 227]	
		COc1cnc(Cl)cc1-c1cc(C)ncc1C(=O)Nc1nnc(OCC(F)(F)F)s1 [Example 29, 2′-chloro-5′-methoxy-6-methyl-N-(5-(2,2,2-trifluoroethoxy)-1,3,4-thiadiazol-2-yl)-(4,4′-bipyridine)-3-carboxamide]	IC50 (Table 4, ATP, dT50 ssDNA): ≤ 200 nM
≤ 200 nM		COc1cnc(Cl)cc1-c1cc(C)ncc1C(=O)Nc1nnc(O[C@H]2CC[C@]3(CCO3)CC2)s1 (single isomer, unassigned) [Example 185, N-(5-(((4s, 7s)-1-oxaspiro(3.5)nonan-7-yl)oxy)-1,3,4-thiadiazol-2-yl)-2′-chloro-5′-methoxy-6-methyl-(4,4′-bipyridine)-3-carboxamide]	
	500 to 1000 nM	CC[S@+]([O-])c1cc(OC)c(-c2cc(C)ncc2C(=O)Nc2nnc(OC)s2)cc1Cl (single isomer, unassigned) [Example 312]	
≤ 200 nM		COc1cnc(Cl)c(F)c1-c1cc(C)ncc1C(=O)Nc1nnc(O[C@@H]2CCOC2)s1 [Example 80, 2′-chloro-3′-fluoro-5′-methoxy-6-methyl-N-(5-(((R)-tetrahydrofuran-3-yl)oxy)-1,3,4-thiadiazol-2-yl)-(4,4′-bipyridine)-3-carboxamide]	
≤ 200 nM		COc1cnc(Cl)cc1-c1cc(COC2CC2)ncc1C(=O)Nc1nnc(O[C@@H]2CCOC2)s1 [Example 214, (R)-2′-chloro-6-(cyclopropoxymethyl)-5′-methoxy-N-(5-((tetrahydrofuran-3-yl)oxy)-1,3,4-thiadiazol-2-yl)-(4,4′-bipyridine)-3-carboxamide]	
≤ 200 nM		Cc1cc(-c2cc(Cl)ncc2OC(F)F)c(C(=O)Nc2nnc(O[C@H]3CC[C@@](C)(O)CC3)s2)cn1 (single isomer, unassigned) [Example 220, 2′-chloro-5′-(difluoromethoxy)-N-(5-(((1s,4s)-4-hydroxy-4-methylcyclohexyl)oxy)-1,3,4-thiadiazol-2-yl)-6-methyl-(4,4′-bipyridine)-3-carboxamide]	
	1000 to 10000 nM	COc1nnc(NC(=O)c2cnc(C)cc2-c2ccc(OC)c(F)c2)s1 [Example 419, 4-(3-fluoro-4-methoxyphenyl)-N-(5-methoxy-1,3,4-thiadiazol-2-yl)-6-methylpyridine-3-carboxamide]	
